Read-outs that look alike come from different tables or passages of the source.
Assays:
[1] = molecular target: T1, TRKC (Homo sapiens, UniProt Q16288); assay: KINOMEscan ScanTK; assay type: binding
T1 construct: purchased Eurofins DiscoverX KINOMEscan (scanTK)

[2] = molecular target: T2, JAK1(JH2domain-pseudokinase) (Homo sapiens, UniProt P23458); assay: KINOMEscan ScanTK; assay type: binding
T2 construct: JAK1(JH2domain-pseudokinase); purchased Eurofins DiscoverX KINOMEscan (scanTK)

[3] = molecular target: T3, FLT3(D835H) (Homo sapiens, UniProt P36888, D835H); assay: KINOMEscan ScanTK; assay type: binding
T3 construct: purchased Eurofins DiscoverX KINOMEscan (scanTK)
T3 sequence (P36888 27-993 D835H): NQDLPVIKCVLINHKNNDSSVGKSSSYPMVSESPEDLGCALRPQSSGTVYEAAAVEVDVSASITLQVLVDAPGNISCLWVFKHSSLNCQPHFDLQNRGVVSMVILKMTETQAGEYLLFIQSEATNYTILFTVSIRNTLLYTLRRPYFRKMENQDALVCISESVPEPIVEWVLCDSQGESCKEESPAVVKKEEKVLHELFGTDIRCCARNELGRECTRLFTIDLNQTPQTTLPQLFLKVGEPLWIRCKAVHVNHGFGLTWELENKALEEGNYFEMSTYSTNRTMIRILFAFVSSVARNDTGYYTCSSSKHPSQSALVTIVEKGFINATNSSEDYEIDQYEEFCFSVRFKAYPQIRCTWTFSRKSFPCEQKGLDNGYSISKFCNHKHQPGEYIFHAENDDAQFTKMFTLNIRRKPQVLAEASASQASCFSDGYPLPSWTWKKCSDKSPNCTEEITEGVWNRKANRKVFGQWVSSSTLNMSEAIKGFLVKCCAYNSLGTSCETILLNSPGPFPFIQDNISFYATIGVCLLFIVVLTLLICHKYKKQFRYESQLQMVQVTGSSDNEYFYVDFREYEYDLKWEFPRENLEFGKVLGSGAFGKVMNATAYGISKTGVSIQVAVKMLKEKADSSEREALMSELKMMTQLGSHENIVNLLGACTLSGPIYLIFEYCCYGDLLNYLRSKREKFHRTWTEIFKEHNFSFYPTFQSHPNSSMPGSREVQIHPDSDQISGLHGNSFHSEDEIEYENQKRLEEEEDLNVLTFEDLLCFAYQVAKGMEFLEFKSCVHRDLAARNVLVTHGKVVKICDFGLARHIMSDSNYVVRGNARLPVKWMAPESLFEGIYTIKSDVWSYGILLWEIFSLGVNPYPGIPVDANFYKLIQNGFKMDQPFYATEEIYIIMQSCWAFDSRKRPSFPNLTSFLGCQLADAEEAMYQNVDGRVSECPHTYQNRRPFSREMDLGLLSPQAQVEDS

[4] = molecular target: T4, MERTK (Homo sapiens, UniProt Q12866); assay: KINOMEscan ScanTK; assay type: binding
T4 construct: purchased Eurofins DiscoverX KINOMEscan (scanTK)
T4 sequence (Q12866 21-999): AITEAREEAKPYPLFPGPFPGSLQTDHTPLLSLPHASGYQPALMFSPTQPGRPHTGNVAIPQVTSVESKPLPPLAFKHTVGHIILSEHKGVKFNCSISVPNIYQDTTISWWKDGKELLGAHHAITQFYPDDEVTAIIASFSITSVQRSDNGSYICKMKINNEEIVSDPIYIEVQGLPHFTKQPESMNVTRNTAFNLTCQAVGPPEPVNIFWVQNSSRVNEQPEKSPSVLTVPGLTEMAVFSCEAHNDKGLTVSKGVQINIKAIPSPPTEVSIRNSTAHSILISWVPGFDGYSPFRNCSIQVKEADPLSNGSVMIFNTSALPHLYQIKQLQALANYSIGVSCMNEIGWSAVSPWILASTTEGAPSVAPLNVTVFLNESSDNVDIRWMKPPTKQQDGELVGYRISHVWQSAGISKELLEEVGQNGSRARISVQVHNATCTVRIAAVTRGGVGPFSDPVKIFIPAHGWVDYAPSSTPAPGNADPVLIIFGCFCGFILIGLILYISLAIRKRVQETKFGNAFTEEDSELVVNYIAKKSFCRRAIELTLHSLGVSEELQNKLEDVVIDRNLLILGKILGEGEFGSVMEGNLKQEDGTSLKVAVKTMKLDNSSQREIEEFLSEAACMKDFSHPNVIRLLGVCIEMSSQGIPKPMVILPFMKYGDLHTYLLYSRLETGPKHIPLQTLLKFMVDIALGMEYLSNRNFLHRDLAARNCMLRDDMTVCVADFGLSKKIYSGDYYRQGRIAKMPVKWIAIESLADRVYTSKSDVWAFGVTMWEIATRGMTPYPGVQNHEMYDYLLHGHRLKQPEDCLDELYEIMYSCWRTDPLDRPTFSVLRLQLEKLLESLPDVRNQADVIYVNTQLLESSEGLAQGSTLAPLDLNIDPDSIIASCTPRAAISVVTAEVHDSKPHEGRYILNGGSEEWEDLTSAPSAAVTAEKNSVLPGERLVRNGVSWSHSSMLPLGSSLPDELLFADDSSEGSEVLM

[5] = molecular target: T5, FES (Homo sapiens, UniProt P07332); assay: KINOMEscan ScanTK; assay type: binding
T5 construct: purchased Eurofins DiscoverX KINOMEscan (scanTK)
T5 sequence (P07332 whole entry): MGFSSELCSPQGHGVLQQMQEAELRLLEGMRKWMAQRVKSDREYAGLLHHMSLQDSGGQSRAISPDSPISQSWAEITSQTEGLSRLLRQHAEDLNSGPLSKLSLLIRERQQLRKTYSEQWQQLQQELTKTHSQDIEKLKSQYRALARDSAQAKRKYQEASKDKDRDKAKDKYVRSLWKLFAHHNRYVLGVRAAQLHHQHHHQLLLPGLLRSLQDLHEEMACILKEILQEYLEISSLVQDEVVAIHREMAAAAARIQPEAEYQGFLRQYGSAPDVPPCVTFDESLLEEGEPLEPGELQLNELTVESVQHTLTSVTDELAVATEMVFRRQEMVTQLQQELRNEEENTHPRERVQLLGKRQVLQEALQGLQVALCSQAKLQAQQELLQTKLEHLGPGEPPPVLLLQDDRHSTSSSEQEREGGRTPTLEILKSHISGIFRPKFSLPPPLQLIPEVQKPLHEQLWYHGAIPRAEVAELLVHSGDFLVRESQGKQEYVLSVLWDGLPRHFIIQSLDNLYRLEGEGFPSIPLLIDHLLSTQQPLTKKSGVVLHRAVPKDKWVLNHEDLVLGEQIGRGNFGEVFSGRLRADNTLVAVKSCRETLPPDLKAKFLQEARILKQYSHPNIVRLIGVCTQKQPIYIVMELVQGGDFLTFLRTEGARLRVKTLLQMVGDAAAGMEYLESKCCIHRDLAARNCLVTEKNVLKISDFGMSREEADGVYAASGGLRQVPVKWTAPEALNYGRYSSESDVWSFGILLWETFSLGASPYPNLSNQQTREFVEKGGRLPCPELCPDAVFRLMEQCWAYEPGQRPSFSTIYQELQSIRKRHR

[6] = molecular target: T6, PDGFRA (Homo sapiens, UniProt P16234); assay: KINOMEscan ScanTK; assay type: binding
T6 construct: purchased Eurofins DiscoverX KINOMEscan (scanTK)
T6 sequence (P16234 24-1089): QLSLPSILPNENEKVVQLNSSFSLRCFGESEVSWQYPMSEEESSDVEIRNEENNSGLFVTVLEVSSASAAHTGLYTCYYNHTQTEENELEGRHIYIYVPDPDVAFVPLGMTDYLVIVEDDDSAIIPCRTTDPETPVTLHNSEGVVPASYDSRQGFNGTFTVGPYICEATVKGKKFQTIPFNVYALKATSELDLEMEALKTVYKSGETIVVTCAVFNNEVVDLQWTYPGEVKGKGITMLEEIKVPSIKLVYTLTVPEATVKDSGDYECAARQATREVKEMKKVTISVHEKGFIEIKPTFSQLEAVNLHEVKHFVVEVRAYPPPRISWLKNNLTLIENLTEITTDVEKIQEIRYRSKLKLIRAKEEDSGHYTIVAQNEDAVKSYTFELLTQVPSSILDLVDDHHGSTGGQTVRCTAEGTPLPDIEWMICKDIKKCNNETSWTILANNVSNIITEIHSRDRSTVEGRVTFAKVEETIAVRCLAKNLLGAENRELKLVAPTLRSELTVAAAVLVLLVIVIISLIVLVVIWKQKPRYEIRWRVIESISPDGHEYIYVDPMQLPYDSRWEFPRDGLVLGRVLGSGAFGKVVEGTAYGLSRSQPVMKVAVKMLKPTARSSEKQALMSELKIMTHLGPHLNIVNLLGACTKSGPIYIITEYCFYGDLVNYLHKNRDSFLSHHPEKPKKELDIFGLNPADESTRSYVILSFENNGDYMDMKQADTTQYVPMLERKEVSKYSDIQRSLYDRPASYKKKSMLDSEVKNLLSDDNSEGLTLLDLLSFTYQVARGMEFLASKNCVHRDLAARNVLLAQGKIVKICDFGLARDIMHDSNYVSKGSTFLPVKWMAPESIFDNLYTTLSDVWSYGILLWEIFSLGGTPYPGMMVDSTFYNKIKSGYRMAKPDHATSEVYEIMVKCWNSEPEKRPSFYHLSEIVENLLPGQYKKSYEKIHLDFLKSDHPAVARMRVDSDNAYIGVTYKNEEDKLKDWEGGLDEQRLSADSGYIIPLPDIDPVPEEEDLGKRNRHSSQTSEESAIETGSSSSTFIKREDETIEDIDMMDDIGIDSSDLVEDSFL

[7] = molecular target: T7, KIT(D816H) (Homo sapiens, UniProt P10721, D816H); assay: KINOMEscan ScanTK; assay type: binding
T7 construct: purchased Eurofins DiscoverX KINOMEscan (scanTK)
T7 sequence (P10721 26-976 D816H): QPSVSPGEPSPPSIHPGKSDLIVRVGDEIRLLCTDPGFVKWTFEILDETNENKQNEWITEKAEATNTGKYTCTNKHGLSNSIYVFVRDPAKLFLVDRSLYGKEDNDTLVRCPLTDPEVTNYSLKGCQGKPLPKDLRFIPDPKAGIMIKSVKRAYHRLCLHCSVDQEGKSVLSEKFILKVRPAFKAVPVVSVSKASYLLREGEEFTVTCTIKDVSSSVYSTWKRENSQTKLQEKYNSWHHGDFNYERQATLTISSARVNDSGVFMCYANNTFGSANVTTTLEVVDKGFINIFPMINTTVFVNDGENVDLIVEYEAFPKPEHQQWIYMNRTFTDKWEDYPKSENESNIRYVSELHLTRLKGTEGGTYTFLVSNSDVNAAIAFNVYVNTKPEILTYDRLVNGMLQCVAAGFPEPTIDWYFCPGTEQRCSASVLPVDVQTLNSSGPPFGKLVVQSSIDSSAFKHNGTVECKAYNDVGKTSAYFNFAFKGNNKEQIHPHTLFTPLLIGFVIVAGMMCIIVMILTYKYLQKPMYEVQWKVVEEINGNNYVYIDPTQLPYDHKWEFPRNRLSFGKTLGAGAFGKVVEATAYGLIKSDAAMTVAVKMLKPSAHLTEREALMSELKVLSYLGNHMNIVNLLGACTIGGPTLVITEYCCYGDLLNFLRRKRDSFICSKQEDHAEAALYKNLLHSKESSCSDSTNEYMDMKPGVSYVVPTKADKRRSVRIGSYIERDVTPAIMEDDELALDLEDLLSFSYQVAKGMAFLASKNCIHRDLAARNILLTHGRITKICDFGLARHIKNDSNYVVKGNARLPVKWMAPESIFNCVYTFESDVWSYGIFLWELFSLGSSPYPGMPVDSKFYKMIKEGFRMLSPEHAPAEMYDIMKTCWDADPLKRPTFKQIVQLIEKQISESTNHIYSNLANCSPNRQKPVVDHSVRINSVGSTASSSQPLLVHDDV

[8] = molecular target: T8, RET(M918T) (Homo sapiens, UniProt P07949, M918T); assay: KINOMEscan ScanTK; assay type: binding
T8 construct: purchased Eurofins DiscoverX KINOMEscan (scanTK)

[9] = molecular target: T9, RET(V804M) (Homo sapiens, UniProt P07949, V804M); assay: KINOMEscan ScanTK; assay type: binding
T9 construct: purchased Eurofins DiscoverX KINOMEscan (scanTK)

[10] = molecular target: wild-type BTK (Homo sapiens, UniProt Q06187); assay: BTK in vitro activity assay (ADP-Glo, poly-Glu:Tyr phosphorylation, TCEP)
[11] = molecular target: T10, EGFR(T790M) (Homo sapiens, UniProt P00533, T790M); assay: KINOMEscan ScanTK; assay type: binding
T10 construct: purchased Eurofins DiscoverX KINOMEscan (scanTK)

[12] = molecular target: T11, LCK (Homo sapiens, UniProt P06239); assay: KINOMEscan ScanTK; assay type: binding
T11 construct: purchased Eurofins DiscoverX KINOMEscan (scanTK)
T11 sequence (P06239 whole entry): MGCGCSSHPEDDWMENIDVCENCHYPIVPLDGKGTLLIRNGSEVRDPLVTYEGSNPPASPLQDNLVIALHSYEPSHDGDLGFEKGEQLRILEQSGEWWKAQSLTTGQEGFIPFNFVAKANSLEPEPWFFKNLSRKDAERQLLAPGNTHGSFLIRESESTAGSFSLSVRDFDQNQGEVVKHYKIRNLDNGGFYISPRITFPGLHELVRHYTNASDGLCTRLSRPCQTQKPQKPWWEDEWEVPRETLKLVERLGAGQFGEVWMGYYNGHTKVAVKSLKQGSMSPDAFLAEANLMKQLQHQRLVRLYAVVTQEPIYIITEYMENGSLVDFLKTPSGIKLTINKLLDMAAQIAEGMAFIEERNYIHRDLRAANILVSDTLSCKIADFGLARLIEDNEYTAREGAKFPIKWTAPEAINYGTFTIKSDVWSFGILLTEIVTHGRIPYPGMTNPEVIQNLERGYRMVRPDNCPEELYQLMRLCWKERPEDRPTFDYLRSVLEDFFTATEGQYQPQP

[13] = @1000nM, TRKC, read-out: %Control
[14] = TRKC, read-out: %Control @1000nM

T1 sequence (Q16288 32-839): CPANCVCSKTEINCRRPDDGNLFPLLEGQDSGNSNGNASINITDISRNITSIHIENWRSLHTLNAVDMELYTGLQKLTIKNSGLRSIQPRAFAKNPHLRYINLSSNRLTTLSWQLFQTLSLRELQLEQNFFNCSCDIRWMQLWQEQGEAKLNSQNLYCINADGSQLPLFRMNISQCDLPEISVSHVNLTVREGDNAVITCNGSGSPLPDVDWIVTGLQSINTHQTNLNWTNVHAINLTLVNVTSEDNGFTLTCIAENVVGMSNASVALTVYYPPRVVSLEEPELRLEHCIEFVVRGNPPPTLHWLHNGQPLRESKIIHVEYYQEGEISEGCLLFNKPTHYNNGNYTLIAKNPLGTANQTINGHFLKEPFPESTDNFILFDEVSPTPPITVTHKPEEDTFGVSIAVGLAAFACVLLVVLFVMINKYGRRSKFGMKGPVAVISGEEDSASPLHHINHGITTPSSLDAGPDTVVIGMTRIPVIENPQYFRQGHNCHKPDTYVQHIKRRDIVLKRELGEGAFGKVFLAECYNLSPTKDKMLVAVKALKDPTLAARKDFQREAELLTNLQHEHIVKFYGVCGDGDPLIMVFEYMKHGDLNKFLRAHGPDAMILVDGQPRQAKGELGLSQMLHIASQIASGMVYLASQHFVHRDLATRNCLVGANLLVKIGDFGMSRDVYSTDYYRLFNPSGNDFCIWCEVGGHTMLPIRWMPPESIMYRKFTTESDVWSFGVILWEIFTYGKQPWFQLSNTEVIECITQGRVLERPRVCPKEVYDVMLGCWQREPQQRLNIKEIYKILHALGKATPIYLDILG
T2 sequence (P23458 583-855 limits assumed): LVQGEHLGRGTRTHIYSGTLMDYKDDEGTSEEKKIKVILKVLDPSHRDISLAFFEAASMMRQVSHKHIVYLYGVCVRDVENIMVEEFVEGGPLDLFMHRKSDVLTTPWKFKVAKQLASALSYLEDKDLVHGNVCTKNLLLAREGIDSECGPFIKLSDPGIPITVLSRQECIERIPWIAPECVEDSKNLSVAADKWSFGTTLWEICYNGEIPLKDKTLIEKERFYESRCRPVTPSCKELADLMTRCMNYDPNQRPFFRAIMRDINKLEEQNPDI

Compound | remaining binding at 1 µM ([2]; @1000nM, read-out: %Control) | remaining binding at 1 µM ([2]; read-out: %Control @1000nM) | remaining binding at 1 µM ([3]; @1000nM, read-out: %Control) | remaining binding at 1 µM ([3]; read-out: %Control @1000nM) | remaining binding at 1 µM ([4]; @1000nM, read-out: %Control) | remaining binding at 1 µM ([4]; read-out: %Control @1000nM) | remaining binding at 1 µM ([5]; @1000nM, read-out: %Control) | remaining binding at 1 µM ([5]; read-out: %Control @1000nM) | remaining binding at 1 µM ([6]; @1000nM, read-out: %Control) | remaining binding at 1 µM ([6]; read-out: %Control @1000nM) | remaining binding at 1 µM ([7]; @1000nM, read-out: %Control) | remaining binding at 1 µM ([7]; read-out: %Control @1000nM) | remaining binding at 1 µM ([8]; @1000nM, read-out: %Control) | remaining binding at 1 µM ([8]; read-out: %Control @1000nM) | remaining binding at 1 µM ([9]; @1000nM, read-out: %Control) | remaining binding at 1 µM ([9]; read-out: %Control @1000nM) | difference in %Control versus compound Ib at 1 µM ([1]; @1000nM, TRKC) | remaining binding at 1 µM [1, 13] | remaining binding at 1 µM [1, 14] | %Control difference versus compound Ib at 1 µM ([2]; @1000nM) | also measured
C=CC(=O)N1CCC[C@@H](n2nc(-c3ccc(Oc4ccccc4)cc3)c3c(N)ncnc32)C1 [Compound 1g, Ibrutinib, reference compound] | 95% | 95% | 36% | 36% | 38% | 38% | 100% | 100% | 49% | 49% | 100% | 100% | 14% | 14% | 100% | 100% | – | – | – | – | remaining binding at 1 µM ([1]; read-out: %Control): 95%; remaining binding at 1 µM ([1]; read-out: %Control @1000nM): 95%
Cc1cnc(S(C)(=O)=O)nc1N1CCCC(n2nc(-c3ccc(Oc4ccccc4)cc3)c3c(N)ncnc32)C1 (centres unmarked) [Compound 8a, 1-(1-(5-Methyl-2-(methylsulfonyl)pyrimidin-4-yl)piperidin-3-yl)-3-(4-phenoxyphenyl)-1H-pyrazolo[3,4-d]pyrimidin-4-amine] | 100% | 100% | 68% | 68% | 60% | 60% | 100% | 100% | 72% | 72% | 87% | 87% | 53% | 53% | 93% | 93% | -17% | 78% | 78% | 5% | difference in %Control from compound Ib at 1 µM ([3]; @1000nM): 32%; IC50 [10]: 24 ± 2 nM; remaining activity at 0.1 µM ([10]; read-out: Remaining BTK activity (%)): 4 ± 1%; difference in %Control versus compound Ib at 1 µM ([5]; @1000nM): 0%; difference in % of control versus compound Ib at 1 µM ([11]; @1000nM): 69.5%; remaining binding at 1 µM ([11]; @1000nM, read-out: %Control): 70%; remaining binding at 1 µM ([11]; read-out: %Control @1000nM): 70%; remaining binding at 1 µM ([12]; @1000nM, read-out: %Control): 2%; remaining binding at 1 µM ([12]; read-out: %Control @1000nM): 2%
CCOC(=O)c1cnc(S(C)(=O)=O)nc1N1CCC[C@@H](n2nc(-c3ccc(Oc4ccccc4)cc3)c3c(N)ncnc32)C1 [Compound 8c, Ethyl (R)-4-(3-(4-Amino-3-(4-phenoxyphenyl)-1H-pyrazolo[3,4-d]pyrimidin-1-yl)piperidin-1-yl)-2-(methylsulfonyl)pyrimidine-5-carboxylate] | 99% | 99% | 96% | 96% | 71% | 71% | 96% | 96% | 91% | 91% | 55% | 55% | 87% | 87% | 100% | 100% | -18% | 77% | 77% | 4% | difference in %Control from compound Ib at 1 µM ([3]; @1000nM): 60%; difference in %Control versus compound Ib at 1 µM ([5]; @1000nM): -4%; difference in % of control versus compound Ib at 1 µM ([11]; @1000nM): 72.5%; remaining binding at 1 µM ([11]; @1000nM, read-out: %Control): 73%; remaining binding at 1 µM ([11]; read-out: %Control @1000nM): 73%; remaining binding at 1 µM ([12]; @1000nM, read-out: %Control): 25%; remaining binding at 1 µM ([12]; read-out: %Control @1000nM): 25%
